Results taken from the NIST ThermoML archive (doi:10.1016/j.jct.2008.01.023).

Legend:
[1] = refractive index (Na D-line) (dimensionless); conditions: 298.15 K; 101.33 kPa; Liquid; Standard Abbe refractometry
[2] = 298.15 K; 101.33 kPa; Liquid
[3] = refractive index (Na D-line) (dimensionless); xn = mol fraction of the nth substance listed; conditions: 298.15 K, 101 kPa, Liquid, Standard Abbe refractometry
[4] = xn = mol fraction of the nth substance listed; conditions: 298.15 K, 101 kPa, Liquid

OCCO [1,2-ethanediol]
Conditions | refractive index
[1] | 1.4304

ClCCCCl [1,3-dichloropropane]
Conditions | mass density [kg/m3] | refractive index
[1] | – | 1.446
[2] | 1179.1 | –

ClCCCCl [1,3-dichloropropane] + CCCCn1cc[n+](C)c1.COS(=O)(=O)[O-]
Conditions | mass density, [4] [kg/m3] | refractive index, [3]
x2 = 0.0429 | 1183.63 | 1.4499
x2 = 0.0674 | 1185.62 | 1.4518
x2 = 0.104 | 1188.24 | 1.4543
x2 = 0.1376 | 1190.37 | 1.4564
x2 = 0.1894 | 1193.17 | 1.4596
x2 = 0.2496 | 1195.76 | 1.4624
x2 = 0.3166 | 1198.02 | 1.4654
x2 = 0.3917 | 1200.02 | 1.4677
x2 = 0.4881 | 1201.98 | 1.4706
x2 = 0.5686 | 1203.19 | 1.4725
x2 = 0.6797 | 1204.61 | 1.4747
x2 = 0.7887 | 1205.73 | 1.4765
x2 = 0.8987 | 1206.82 | 1.4784

ClCCCCl [1,3-dichloropropane] + CCCCn1cc[n+](C)c1.F[B-](F)(F)F
Conditions | mass density, [4] [kg/m3] | refractive index, [3]
x2 = 0.0536 | 1184.13 | 1.4448
x2 = 0.1135 | 1187.8 | 1.443
x2 = 0.1516 | 1189.78 | 1.4418
x2 = 0.2101 | 1192.32 | 1.4401
x2 = 0.2817 | 1194.71 | 1.4381
x2 = 0.3528 | 1196.53 | 1.4359
x2 = 0.4042 | 1197.51 | 1.4345
x2 = 0.4626 | 1198.41 | 1.433
x2 = 0.5254 | 1199.14 | 1.4314
x2 = 0.5466 | 1199.38 | 1.4309
x2 = 0.5955 | 1199.76 | 1.4296
x2 = 0.6786 | 1200.34 | 1.4276
x2 = 0.7863 | 1200.89 | 1.4255
x2 = 0.9028 | 1201.2 | 1.4234

CCCCn1cc[n+](C)c1.COS(=O)(=O)[O-] [1-butyl-3-methylimidazolium methyl sulfate]
Conditions | mass density [kg/m3] | refractive index
[1] | – | 1.4794
[2] | 1207.75 | –

CCCCn1cc[n+](C)c1.COS(=O)(=O)[O-] [1-butyl-3-methylimidazolium methyl sulfate] + CCO
Conditions | mass density, [4] [kg/m3] | refractive index, [3]
x1 = 0.0459 | 850.62 | 1.3791
x1 = 0.0987 | 909.24 | 1.3956
x1 = 0.142 | 948.07 | 1.4067
x1 = 0.1905 | 984.34 | 1.417
x1 = 0.2357 | 1012.98 | 1.4253
x1 = 0.2733 | 1033.54 | 1.4314
x1 = 0.3516 | 1069.63 | 1.4414
x1 = 0.4381 | 1101.3 | 1.4503
x1 = 0.5335 | 1129.08 | 1.4581
x1 = 0.5712 | 1138.45 | 1.4609
x1 = 0.6742 | 1160.39 | 1.4667
x1 = 0.7665 | 1176.77 | 1.4715
x1 = 0.8482 | 1188.91 | 1.4745
x1 = 0.9248 | 1199.03 | 1.4772

CCCCn1cc[n+](C)c1.COS(=O)(=O)[O-] [1-butyl-3-methylimidazolium methyl sulfate] + C[N+](=O)[O-]
Conditions | mass density, [4] [kg/m3] | refractive index, [3]
x1 = 0.0398 | 1146.67 | 1.3953
x1 = 0.1021 | 1161.66 | 1.4128
x1 = 0.1433 | 1168.87 | 1.4218
x1 = 0.1988 | 1176.21 | 1.4316
x1 = 0.2444 | 1180.95 | 1.4382
x1 = 0.2998 | 1185.58 | 1.4449
x1 = 0.3979 | 1191.69 | 1.4541
x1 = 0.4786 | 1195.47 | 1.4596
x1 = 0.5652 | 1198.52 | 1.4648
x1 = 0.7127 | 1202.66 | 1.4714
x1 = 0.8212 | 1204.74 | 1.4748
x1 = 0.8546 | 1205.4 | 1.4758

CCCCn1cc[n+](C)c1.COS(=O)(=O)[O-] [1-butyl-3-methylimidazolium methyl sulfate] + OCCO
Conditions | mass density, [4] [kg/m3] | refractive index, [3]
x1 = 0.0341 | 1195.09 | 1.4334
x1 = 0.0854 | 1115.82 | 1.4373
x1 = 0.1079 | 1172.89 | 1.439
x1 = 0.1946 | 1123.61 | 1.4449
x1 = 0.2446 | 1170.78 | 1.4479
x1 = 0.2999 | 1126.01 | 1.4511
x1 = 0.353 | 1164.56 | 1.454
x1 = 0.4399 | 1138.05 | 1.4582
x1 = 0.5061 | 1150.15 | 1.4616
x1 = 0.5299 | 1188.48 | 1.4625
x1 = 0.636 | 1143.98 | 1.4672
x1 = 0.717 | 1155.76 | 1.4703
x1 = 0.8055 | 1182.08 | 1.4735
x1 = 0.907 | 1201.87 | 1.4768
